From US4446137A, “Cephalosporin derivative and pharmaceutical composition containing the derivative” (Kureha Kagaku Kogyo Kabushiki Kaisha, priority 1981, dated 1984)

Key:
Lactobacillus bifidus = experiment: Effect on the intestinal bacterial colonies: L. bifidus count in mouse feces; type: in vivo
Description: (§1) Each of the cephalosporin derivatives of the invention prepared in Examples 1 to 4 was orally administered to mice (one group consisting of five female ICR mice of 6-week-old) for two consecutive days at a dose of 500 mg/kg/day.
(§2) Before and one day after the administration, feces of each mouse was collected and diluted with an anaerobic diluent (phosphoric buffer solution) of 100 times by volume and the diluted feces was ground. 0.1 ml of the diluted and ground feces was smeared on each culture medium shown in Table 1 and cultured aerobically or anaerobically (according to the anaerobic glove box method) under each condition shown in Table 1 and the number of each bacterium shown in Table 1 was counted.
BS agar anaerobic, 37° C.,

[1] = system: Staphylococcus aureus IAM 1011; experiment: Activation by rat liver homogenate (S-9 mix), proliferation-inhibiting circle, penicillin cup; type: cell-based; conditions: 37° C., 20 min, ratio of circle diameter to that of the starting compound; for Proliferation-inhibiting index, before adding S-9 mix (control): phosphoric buffer instead of S-9 mix; for Proliferation-inhibiting index, after adding S-9 mix: rat liver S-9 mix; on all read-outs here: ranges in brackets are in %
Description: As an activating enzyme of metabolism, a rat liver homogenate (S-9, manufactured by Oriental Yeast Company, Japan) was used in the following composition per 1 ml (hereinafter referred to as S-9 mix). |S-9 0.5 ml |KCl 3.3 μmol |MgCl2.6H2 O 8 μmol |Glucose 6-phosphate 5 μmol |NADH 4 μmol |NADPH 4 μmol |0.2 M phosphoric buffer solution | 0.5 ml |(pH of 7.4) 0.1 ml of the solution of each of the cephalosporin derivatives of the invention prepared in Examples 1 to 4 at a concentration of 100 μg/ml was mixed with 0.9 ml of S-9 mix or 0.9 ml of 0.1 M phosphoric buffer solution (as a control) and the obtained mixture was incubated at 37° C. for 20 min with shaking. Staphylococcus aureus IAM 1011 was inoculated into a Mueller-Hinton's culture medium and cultured at 37° C. for 18 hours. The culture medium was adjusted to a cell concentration of 1×10^8 per 1 ml and mixed with 50 times by volume of Mueller-Hinton's agar culture medium to obtain an agar plate. A penicillin cup of 8 mm in diameter was placed on the agar plate prepared above, and into the cup 0.1 ml of the mixture containing the cephalosporin derivative prepared above was introduced and allowed to stand at 4° C. for 2 hours, and then cultured at 37° C. for 18 hours to measure the diameter of a circle in which the proliferation of bacteria was inhibited (proliferation-inhibiting circle). In Table 4, the proliferation-inhibiting index is shown in the ratio (%) of the diameter of the proliferation-inhibiting circle obtained by using each of the cephalosporin derivatives of the invention to that obtained by using each of the starting compound in preparing each of the cephalosporin derivatives of the invention.

[2] = system: Staphylococcus aureus IAM 1011; experiment: Antibacterial activity (MIC), agar plate, Staph. aureus; type: cell-based; parameters: unit not given beside the values; conditions: Mueller-Hinton agar, 37° C., 18 to 24 hours; unit not given
Description: (§3) Antibacterial activity of each of the cephalosporin derivatives of the invention prepared in Examples 1 to 4 was examined against the following two bacteria according to the standard method of Japan Society of Chemitherapy: Escherichia coli IFO 12734 and Staphylococcus aureus IAM 1011.
(§4) Each bacterial strain was inoculated into the Mueller-Hinton's culture medium and cultured at 37° C. for 18 to 48 hours. The cultured medium was diluted so as to contain 1×10^6 cells of the bacteria per one ml, and the obtained medium was used as the bacterial specimen.
(§5) Agar plates were prepared by adding one part by weight of each solution of the cephalosporin derivative of the invention at a predetermined concentration to nine parts by weight of Mueller-Hinton's culture medium.
(§6) A loopful amount of the bacterial specimen prepared above was smeared to make a streak of about 2 cm on each agar plate prepared above and cultured at 37° C. for 18 to 24 hours.
(§7) The minimum concentration for completely inhibiting proliferation of the bacteria (referred to as MIC) was determined.

Bacteroides = experiment: Effect on the intestinal bacterial colonies: Bacteroides count in mouse feces; type: in vivo
Description: as §1, §2
Bacteroides NBGT agar anaerobic, 37° C.,

[3] = system: Lactobacillus acidophilus; experiment: Effect on the intestinal bacterial colonies: L. acidophilus count in mouse feces; type: in vivo
Description: as §1, §2
Lactobacillus acidophilus
LBS agar anaerobic, 37° C.,

Pseudomonas aeruginosa = experiment: Effect on the intestinal bacterial colonies: Ps. aeruginosa count in mouse feces; type: in vivo
Description: as §1, §2
NAC agar aerobic, 37° C.,

Streptococcus spp. = experiment: Effect on the intestinal bacterial colonies: Streptococcus spp. count in mouse feces; type: in vivo
Description: as §1, §2
TATAC agar aerobic, 37° C.,

[4] = system: Escherichia coli IFO 12734; experiment: Antibacterial activity (MIC), agar plate, E. coli; type: cell-based; parameters: unit not given beside the values; conditions: Mueller-Hinton agar, 37° C., 18 to 24 hours; unit not given
Description: as §3, §4, §5, §6, §7

Escherichia coli = experiment: Effect on the intestinal bacterial colonies: E. coli count in mouse feces; type: in vivo
Description: as §1, §2
DHL agar aerobic, 37° C.,

[5] = female ICR mice, oral 500 mg/kg/day for two days, one day after administration, before administration 6.4

Logarithmic value of the number of bacterial cells per one g of feces: L. bifidus (Lactobacillus bifidus; in vivo, po, 500 mg/kg/day) | MIC, Staph. aureus [2] | Logarithmic value of the number of bacterial cells per one g of feces: Bacteroides (Bacteroides; in vivo, po, 500 mg/kg/day) | Logarithmic value of the number of bacterial cells per one g of feces: L. acidophilus ([3]; in vivo, po, 500 mg/kg/day) | Logarithmic value of the number of bacterial cells per one g of feces: Ps. aeruginosa (Pseudomonas aeruginosa; in vivo, po, 500 mg/kg/day) | Logarithmic value of the number of bacterial cells per one g of feces: Strept. spp. (Streptococcus spp.; in vivo, po, 500 mg/kg/day) | MIC, E. coli [4] | Logarithmic value of the number of bacterial cells per one g of feces: E. coli (Escherichia coli; [5]) | Structure (SMILES) | Proliferation-inhibiting index, before adding S-9 mix (control) [1] | Proliferation-inhibiting index, after adding S-9 mix [1] | Logarithmic value of the number of bacterial cells per one g of feces: L. bifidus (Lactobacillus bifidus; female ICR mice, oral 500 mg/kg/day for two days, one day after administration, before administration 8.4) | Logarithmic value of the number of bacterial cells per one g of feces: Bacteroides (Bacteroides; female ICR mice, oral 500 mg/kg/day for two days, one day after administration, before administration 8.3) | Logarithmic value of the number of bacterial cells per one g of feces: L. acidophilus ([3]; female ICR mice, oral 500 mg/kg/day for two days, one day after administration, before administration 9.0) | change of Lactobacillus acidophilus ([3]; mouse feces, result in words) | Logarithmic value of the number of bacterial cells per one g of feces: Ps. aeruginosa (Pseudomonas aeruginosa; female ICR mice, oral 500 mg/kg/day for two days, one day after administration, before administration <3.0) | Logarithmic value of the number of bacterial cells per one g of feces: Strept. spp. (Streptococcus spp.; female ICR mice, oral 500 mg/kg/day for two days, one day after administration, before administration 6.8) | change of the number of Escherichia coli compared to before administration (Escherichia coli; in vivo) | Logarithmic value of the number of bacterial cells per one g of feces: E. coli (Escherichia coli; in vivo, po, 500 mg/kg/day)
8.9 Logarithmic value of the numbe | 12.5 | 8.3 Logarithmic value of the numbe | 9.4 Logarithmic value of the numbe | < 3.9 Logarithmic value of the numbe | 7.0 Logarithmic value of the numbe | ≥ 100 | 6.0 Logarithmic value of the numbe | COC(=O)CCC(NC(=O)C1=C(COC(C)=O)CSC2C(NC(=O)Cc3cccs3)C(=O)N12)C(=O)OC (stereo not drawn) [Example 4, N-[1,3-bis(carbomethoxy)propyl]-7-(thienyl-2-acetamido)cephalosporanic acid amide] | + (1-33) | ++ (33-66) |  |  |  |  |  |  |  | 
8.2 Logarithmic value of the numbe | ≥ 12.5 | 8.7 Logarithmic value of the numbe | 8.9 Logarithmic value of the numbe | < 3.0 Logarithmic value of the numbe | 6.3 Logarithmic value of the numbe | ≥ 100 | 6.5 Logarithmic value of the numbe | CCOC(=O)C(Cc1ccc(O)cc1)NC(=O)C1=C(COC(C)=O)CSC2C(NC(=O)Cc3cccs3)C(=O)N12 (stereo not drawn) [Example 3, N-[1-carboethoxy-2-(4-hydroxyphenyl)ethyl]-7-(thienyl-2-acetamido)cephalosporanic acid amide] | - (0) | ± (0-1) |  |  |  |  |  |  |  | 
8.3 Logarithmic value of the numbe | ≥ 12.5 | 8.8 Logarithmic value of the numbe | 8.9 Logarithmic value of the numbe | < 3.0 Logarithmic value of the numbe | 6.6 Logarithmic value of the numbe | ≥ 100 | 6.4 Logarithmic value of the numbe | COC(=O)[C@H](CCSC)NC(=O)C1=C(COC(C)=O)CSC2C(NC(=O)Cc3cccs3)C(=O)N12 (stereo partly drawn) [Example 2, N-(1-carbomethoxy-3-thiomethylpropyl)-7-(thienyl-2-acetamido)cephalosporanic acid amide] | - (0) | ± (0-1) |  |  |  |  |  |  |  | 
 |  |  |  |  |  |  |  | CC(=O)OCC1=C(C(=O)O)N2C(=O)[C@@H](NC(=O)Cc3cccs3)[C@H]2SC1 [Cephalotin, reference compound] |  |  | 9.2 Logarithmic value of the numbe | 7.2 Logarithmic value of the numbe | 4.1 Logarithmic value of the numbe | decreased | < 3.0 Logarithmic value of the numbe | 9.0 Logarithmic value of the numbe | increased | 9.9 Logarithmic value of the numbe
8.6 Logarithmic value of the numbe | ≥ 12.5 | 8.5 Logarithmic value of the numbe | 9.0 Logarithmic value of the numbe | < 3.3 Logarithmic value of the numbe | 7.0 Logarithmic value of the numbe | ≥ 100 | 6.3 Logarithmic value of the numbe | COC(=O)C[C@H](NC(=O)C1=C(COC(C)=O)CSC2C(NC(=O)Cc3cccs3)C(=O)N12)C(=O)OC (stereo partly drawn) [Example 1, N-[1,2-bis(carbomethoxy)ethyl]-7-(thienyl-2-acetamido)cephalosporanic acid amide] | - (0) | ± (0-1) |  |  |  |  |  |  |  | 
